Columns and labels:
Trypanosoma cruzi [1] = assay: In vitro antiparasitic activity against Trypanosoma cruzi (amastigotes); type: functional, organism-based
Trypanosoma cruzi [2] = assay: In vitro antiparasitic activity against Trypanosoma cruzi (epimastigotes); type: functional, organism-based
Trypanosoma cruzi [3] = assay: In vitro […] antiparasitic activity against Trypanosoma cruzi at 70 uM (amastigotes); type: functional
Trypanosoma cruzi [4] = assay: In vitro […] antiparasitic activity against Trypanosoma cruzi at 50 uM (amastigotes); type: functional

| SMILES | IC50 (Trypanosoma cruzi [1]) [µM] | IC50 (Trypanosoma cruzi [2]) [µM] | inhibition at 70 µM (Trypanosoma cruzi [3]) [%] | inhibition at 50 µM (Trypanosoma cruzi [4]) [%] |
| --- | --- | --- | --- | --- |
| CCCCCCCCC(O)(P(=O)(O)O)P(=O)(O)O | 65.8 | > 70 |  |  |
| O=P(O)(O)C(O)(COc1ccc(Oc2ccccc2)cc1)P(=O)(O)O | > 50 |  | 23 |  |
| O=P(O)(O)C(O)(COc1ccc(Cl)cc1Cl)P(=O)(O)O | > 50 |  |  | 37 |
| CCCCCCCC(O)(P(=O)(O)O)P(=O)(O)O | > 70 | > 70 | 41 |  |
| CCCCCC(O)(P(=O)(O)O)P(=O)(O)O | 70 | > 70 | 34 |  |
| O=P(O)(O)C(O)(COc1ccccc1)P(=O)(O)O | > 70 |  | 16 |  |
| CCCC(O)(P(=O)(O)O)P(=O)(O)O | 21.4 | > 70 |  |  |
| CCCCCCCCCC(O)(P(=O)(O)O)P(=O)(O)O | > 70 | > 70 | 10 |  |
| CCCCCCC(O)(P(=O)(O)O)P(=O)(O)O | 18.1 | > 70 |  |  |
| CCCCCCCCCCCCCC(O)(P(=O)(O)O)P(=O)(O)O | 53.5 |  |  |  |
| NCCCC(O)(P(=O)(O)O)P(=O)(O)O [ALENDRONIC ACID] | 65 |  |  |  |
| NCCC(O)(P(=O)(O)O)P(=O)(O)O [PAMIDRONIC ACID] | 65 |  |  |  |
| O=P(O)(O)C(O)(Cc1cccnc1)P(=O)(O)O [RISEDRONIC ACID] | 300 |  |  |  |

Source: ChEMBL document CHEMBL1134235, “Bisphosphonates derived from fatty acids are potent growth inhibitors of Trypanosoma cruzi” (Bioorg Med Chem Lett, 2001)
